Assay results taken from publication PMC9728581 (Frontiers in Pharmacology, 2022).

What was measured:
serum albumin = conditions: ref Gao et al., 2020; cited from earlier work
Experimental: In this study, the protein binding ratio was calculated as the average value of 92.5%.

[1] = Population pharmacokinetic (NONMEM) model of unbound teicoplanin in Chinese adult patients; assay type: in vivo, human
Experimental: The pregnant female patients, hemodialysis patients, disseminated intravascular coagulation patients, and continuous renal replacement therapy patients were excluded.
(§1) However, prescribed dosing regimens were at the discretion of treating physicians based on the severity of the patient’s disease and the standard dosing regimen was not always followed. The daily dose range of patients included in this study was 50–1,600 mg.
(§2) Blood samples were typically collected within 30 min to 1 h preceding the 4th dose and the 6th dose, and depending on the actual clinical situation, blood samples might be taken at other time for TDM during the treatment. The Plasma samples were placed in a Centrifree® ultrafiltration device and placed in a 37°C water bath for 30 min, followed by centrifugation at 37°C, 1,500 × g for 30 min, and the ultrafiltrate was directly used for the determination of unbound concentration by ultra-performance liquid chromatography-tandem mass spectrometry (UPLC-MS/MS) method. […] The average relative recovery ratio was 97.9%, and the matrix effect factor was 0.97. Details of blood handling, storage and measurement have been described previously ([Fu et al., 2020]).
The PopPK modeling was performed using NONMEM (non-linear mixed effects modeling, v7.2, Globomax Corp, United States), and Wings for NONMEM (v6.1, Nick Holford, University of Auckland, New Zealand) was used as an auxiliary software for NONMEM execution. R (v3.6.1, Saik Urien, U.R.C. Paris Centre, Hopital Tarnier, France) was used for exploratory data analysis, data assembly, and graphical presentation of modeling and simulation results.
The parameter estimation method for PopPK model was FOCEI (first order conditional estimation with η-ε interaction option). The inter-individual variability (IIV) of the parameters were estimated using exponential random effects. θi=θ∙e^ηi (5) Where θi is the estimated parameter value of the individual i, θ represents the typical population parameter, and ηi (IIV) is assumed to follow the normal distribution with mean of 0 and variance of ω^2 and was estimated during model fitting.
The additive, proportional, and mixed residual error models were compared separately, and finally the mixed residual error model was selected for data fitting.
Covariate modeling analysis was used to explore the source of variability.
The stepwise covariate modeling approach was used to establish the covariate model in this analysis. During the forward selection step, all covariates were added to the PK parameters in the base model one by one. Covariates were screened based on the changes in objective function values (OFV) and graphical evaluation. The covariate with a significant effect (p < 0.05, e.g., df = 1, ΔOFV ≥ 3.84) would be added to the basic model to build a full model. Based on the full model, the existing covariates were deleted one by one as the backward elimination step. For each deleted covariate, the increase in OFV should be ≥ 10.83 (p < 0.001, df = 1), otherwise, this covariate should be excluded from the final model.
Continuous covariates (e.g., WT) were added to the model according to the following equation. θi=θTV×(covi/covmedian)^θx (7) Where θi is the parameter value of the ith individual; θTV is the population typical value of PK parameters; covi is the covariate value of the ith individual; covmedian is the median value of this covariate; θx is the influence coefficient of the covariate on the parameters.
Categorical covariates (e.g., gender) were added to the model according to the following equations: θi=θTV+θx,cov=xl if Cov=Xl (8) θi=θTV if Cov=X0 (9) Where θx,cov=xl is the change in a parameter when covariate X is at level l compared with the reference level (0).
The performance and stability of the final model were estimated using non-parametric bootstrap. 1,000 datasets generated by random sampling were evaluated. […]

[2] = ref Pauluzzi et al., 1987; cited from earlier work
Description: Previous studies have shown that adverse events inc ...

[3] = Unbound teicoplanin plasma concentration, ultrafiltration and UPLC-MS/MS; assay type: in vivo, human; conditions: plasma ultrafiltrate (Centrifree, 37°C), 103 observations, 72 patients, daily dose 50–1,600 mg i.v.
Experimental: as §1, §2

[4] = non-parametric bootstrap, 1,000 datasets

Substance: teicoplanin
- bound to serum albumin (protein binding ratio) (serum albumin): 90%–95%
- θALB, bootstrap median [1, 4]: 1.55 g/L
- θCL, bootstrap median [1, 4]: 11.38 L/h
- θV, bootstrap median [1, 4]: 822 L
- θeGFR, bootstrap median [1, 4]: 0.501 mL/min
- θV, population typical value of the volume of distribution (NONMEM estimate) ([1]; unbound teicoplanin, one-compartment model, 72 patients, 103 observations, at ALB 32): 811 L
- θCL, population typical value of clearance (NONMEM estimate) ([1]; unbound teicoplanin, one-compartment, first-order elimination, 72 Chinese adult patients, 103 observations, i.v. infusion, at eGFR 84): 11.7 L/h
- total Ctrough above which thrombocytopenia was more common [2]: > 60 µg/mL
- Unbound teicoplanin concentrations, range [3]: 0.4 to 4.4 µg/mL
- Unbound teicoplanin concentrations, mean ± SD ([3]; mostly trough, SD): 1.5 ± 0.9 µg/mL
